What was measured:
Type in all cases: cell-based, human
AIN4 cells = test: Crystal violet cellular proliferation assay; settings: 100 μg/mL
Procedure: The 184A1N4 cell line (hereinafter “A1N4”) is a non-tumorigenic cell line derived from primary cultures of HMECs and immortalized with benzo(a)pyrene (provided by Dr. M. R. Stampfer, University of California, Berkley, Calif.) (Stampfer, M. R. et al., Proc. Natl. Acad. Sci. USA, 82: 2394-2398, 1985). These cells were maintained in IMEM medium with 0.5% FBS, 0.5 μg/mL of hydrocortisone (Biofluids), 5 μg/mL insulin and 10 ng/mL of EGF.
One×10^3 cells per well were seeded in 96 well dishes (Coming Costar, Cambridge, Mass.). Primary cultures of HMECs, A1N4 and 184B5 cells were evaluated at two different cell densities (seeded at 1×10^3 and 2×10^3 per well). After 24 hours of cell attachment, cells in triplicate wells were treated with pentamer at a concentration of 100 μg/mL. The cells on the same plate were treated with corresponding controls: (i) media containing DMSO, and (ii) media with no additions.
Cells were treated for 1, 2, 3, 6, 8 and 10 days, but in some cases, the samples were collected at days 2, 3, 4, 7 and 10 post-treatment. Each treatment was conducted in triplicate. […] The optical density (OD) of samples was read at 550 nm on an Ultramark Microplate Imagining System (BioRad, Philadelphia, Pa.). […] Statistical significance was determined using the t test analysis.

PARP = PARP cleavage in MDA MB-231 cells; settings: 48 hours treatment
Excerpt: Rabbit polyclonal poly (ADP-ribose) polymerase (PARP) (H-250) was obtained from Santa Cruz Biotechnology Inc., (Santa Cruz, Calif.). α-Tubulin antibody was obtained from Neomarkers, Fremont, Calif. All antibodies used for proteomics analysis were obtained from Cell Signaling (Beverly, Mass.), Upstate Biotechnology (Lake Placid, N.Y.), Neomarkers (Fremont, Calif.) and Santa Cruz (Santa Cruz, Calif.) (Table 2). Referring to Table 2, Abs designated as “mouse” were monoclonal Abs, and Abs designated as “rabbit” were polyclonal Abs. The ECL detection reagent was obtained from Amersham (Arlington Heights, Ill.).
To determine whether depolarization of the mitochondrial membrane, induced by pentamer leads to apoptotic cellular death in human breast cancer cells lines, MDA MB-231 and MCF-7 cells were examined for PARP cleavage products. Since PARP is one of the downstream substrates of the caspase cascade, it is an excellent marker of apoptosis [Soldani, C. et al., Apoptosis, 7: 321-328, 2002].

p53 = test: High resolution profiling (P-FILM) of p53 in MDA MB-468 cells; settings: 100 μg/mL
Procedure: Both p53 and pRb contain multiple phosphorylation sites, and evaluating each site separately provides a more accurate indication of each protein's potential function. Therefore, a high resolution functional profiling of the proteins was performed using P-FILM technology (20/20 Gene Systems, Inc.).
The same protein samples as those used for PDVF membrane blotting were used. Ten μg of each protein sample of MDA MB-231 cells, and in some cases MDA MB-468 and MCF-7 cells, treated with 100 μg /mL of pentamer or DMSO-treated controls, were separated by PAGE on 4-20% gradient gels (BioRad). Proteins were transferred on a stack of ten membranes, according to manufacturer's instructions (20/20 Gene Systems, Inc.). The membranes were probed with antibodies recognizing total and phosphorylated p53 (p53Ser6, Ser9, Ser15, Ser20, Ser37, Ser46 and Ser392) at 1:1000 dilution as recommended by the manufacturer (Cell Signaling). The secondary antibody used in all cases was anti-rabbit polyclonal 1:2000 (Amersham). Signals were visualized on BIOMAX MR film (Kodak). The profiling of pRb was done using anti-phospho pRb (Ser780, Ser 795 and Ser 807/811) and anti-pRb polyclonal antibody (Cell Signaling) at a 1:1000 dilution. The secondary antibody used in all cases was anti-rabbit at 1:2000 dilution (Amersham). Image analysis was performed with Kodak 1D image analysis software. Background corrected intensity values were normalized for loading by using GAPDH intensities. Numerical analysis was performed in Excel.

## Oc1cc(O)c2c(c1)O[C@H](c1ccc(O)c(O)c1)[C@H](O)[C@H]2c1c(O)cc(O)c2c1O[C@H](c1ccc(O)c(O)c1)[C@H](O)[C@H]2c1c(O)cc(O)c2c1O[C@H](c1ccc(O)c(O)c1)[C@H](O)[C@H]2c1c(O)cc(O)c2c1O[C@H](c1ccc(O)c(O)c1)[C@H](O)[C@H]2c1c(O)cc(O)c2c1O[C@H](c1ccc(O)c(O)c1)[C@H](O)C2 [pentamer, pentameric procyanidin]
AIN4 cells
  growth inhibited, in comparison to DMSO-treated controls: 7.3 fold
PARP
  main band of PARP (cleavage): uncleaved
p53; MD MB-468
  percentage of p53 phosphorylated at Ser392 decreased, compared to untreated controls: 33%
p53; MDA MB-468
  expression of endogenous p53: not significantly affected
  phosphorylation of p53 Ser15 and Ser46: not significantly affected

Source: US7371776B2, “Methods and compositions for treating cancer” (Mars, Incorporated, priority 2004, dated 2008)
